# Results as given in the NIST ThermoML archive (doi:10.1021/je100361s).
# Numbers after ± are expanded uncertainties.
# Settings: 101.33 kPa, Liquid, Shanghai Precision & Scientific Instrument Co., LTD (DDS-307)
SMILES,electrical conductivity (298.15 K) [S/m],electrical conductivity (303.15 K) [S/m],electrical conductivity (308.15 K) [S/m],electrical conductivity (313.15 K) [S/m],electrical conductivity (318.15 K) [S/m]
CCCCO [butan-1-ol],4.4e-05 ± 2.6e-06,5.55e-05 ± 3.3e-06,6.58e-05 ± 4e-06,6.9e-05 ± 4.1e-06,8e-05 ± 4.8e-06
CCO [ethanol],0.000413 ± 2.5e-05,0.000504 ± 3e-05,0.000584 ± 3.5e-05,0.000644 ± 3.9e-05,0.000711 ± 4.3e-05
O [water],,0.00287 ± 0.00017,0.00323 ± 0.00019,0.00349 ± 0.00021,0.00375 ± 0.00022
CC(C)O [propan-2-ol],5.2e-05 ± 3.1e-06,7e-05 ± 4.2e-06,7.5e-05 ± 4.5e-06,8.08e-05 ± 4.9e-06,8.43e-05 ± 5.1e-06
